Assay results taken from patent US9446019B2, “Sparstolonin B based pharmaceutical agent for neuroblastoma treatment” (University of South Carolina, priority 2013, dated 2016).

What was measured:
[1] = ROS-generating activity in cell-free system (H2DCFDA, HRP); type: biochemical; details: GSH 0.25 μM or 2.5 μM added to SsnB 10 μM + H2DCFDA + HRP
Procedure: FIG. 2D and FIG. 2E illustrate the ROS generating capacity of SsnB evaluated in a cell-free system containing H2DCFDA (25 μM), horseradish peroxidase (HRP, 5 units/ml), SsnB (10 μM) and glutathione (GSH, 0.25 or 2.5 μM) alone or in various combinations. Optical density (O.D.) at 540 nm were taken at different time points and plotted.
In a reaction system, after the removal of acetate group by cellular esterases and oxidation by reactive oxygen species, the non-fluorescent carboxy-H2DCFDA dye is oxidized to fluorescent molecule carboxy-DCF. To measure the ROS-generating activity of SsnB, the oxidation of carboxy-H2DCFDA dye was monitored in a cell-free system containing carboxy-H2DCFDA dye, horseradish peroxidase (HRP) and SsnB at 540 nm. HRP was used to supply esterase since without esterase carboxy-H2DCFDA is not sensitive to oxidant. […] After addition of HRP (5 units/ml) in the reaction mixture containing SsnB (10 μM)+H2DCFDA dye (25 μM), the OD value increased by 2% in the first 240 sec and further increased by 8% after 15 min compared to H2DCFDA+HRP reaction, indicating the increased oxidation of H2DCFDA to the fluorescent compound.

[2] = test system: caspase-3 in neuroblastoma cells; assay: Cleaved caspase-3 by immunofluorescence and Western blotting; type: cell-based, human; details: NAC 1 and 5 mM pretreatment, SsnB 10 μM; SH-SY5Y and SK-N-BE(2) cells
Procedure: For immunofluorescence staining, cells grown in Lab-TekII chamber slides (Fisher Scientific, Pittsburgh, Pa.) were treated with SsnB in complete culture medium. After treatments, cells were washed with 1×PBS, fixed with 4% paraformaldehyde/PBS for 20 min, and permeabilized with 0.2% Triton X-100/PBS for 10 min at room temperature. Cells were washed with 1×PBS for 3 times and blocked with 5% immunoglobulin (IgG) free-bovine serum albumin (BSA; Jackson ImmunoResearch Laboratories, West Grove, Pa.) in 1×PBS for overnight at 4° C. Cells were incubated with antibody raised against active form of caspase-3 (Cell Signaling Technology, Danvers, Mass.) diluted in 2.5% BSA/PBS for overnight at 4° C. Primary antibodies were detected with secondary antibodies conjugated with fluorescein isothiocyanate (FITC; Santa Cruz Biotechnology, Dallas, Tex.) for 2 h at room temperature. After washing with 1×PBS, cells were mounted with antifade Vectashield mounting media (Vector Laboratories, Burlingame, Calif.), and signals were visualized under Nikon-E600 fluorescence microscope. Nuclei were counterstained with 4′,6-diamidino-2-phenylindole (DAPI; Sigma).
After treatment with SsnB, cells were collected, washed with 1×PBS, and lysed with 1× cell lysis buffer (Cell Signaling Technology, Danvers, Mass.) containing phenylmethylsulfonyl fluoride (PMSF) and protease inhibitors (aprotinin and leupeptin) for 30 min on ice, and centrifuged at 12000×rpm for 10 min at 4° C. Supernatant (total cell protein) was collected and stored at −80° C. Protein concentration was determined by bicinchoninic acid method using BCA protein assay kit (Pierce/ThermoScientific, Waltham, Mass.). Equal amount of proteins were diluted with 5× Laemmli samples loading buffer and boiled for five minutes. The proteins were subjected to sodium dodecyl sulfate (SDS)-polyacrylamide gel electrophoresis and analyzed by Western blots. Briefly, after electrophoresis, proteins were transferred on polyvinylidene difluoride (PVDF) membrane at 100 volt for 3 h in cold room. Membrane was blocked with 5% non-fat dry milk/TBST (20 mM Tris-Cl, pH 7.4; 150 mM NaCl with 0.1% Tween-20) for 4 h at room temperature followed by incubation in primary antibodies diluted in 2.5% non-fat dry milk/TBST for overnight at 4° C. After washing with TBST, membrane was incubated with secondary antibodies (horseradish peroxidase-conjugated goat anti-rabbit or goat anti-mouse IgG; Santa Cruz Biotechnology, Dallas, Tex.) diluted in 2.5% non-fat dry milk/TBST for 3 h at room temperature. Signals were detected by chemiluminiscence detection kit (Pierce/Thermo Fisher Scientific, Rockford, Ill.). Primary antibodies used were cleaved caspase-3 and β-actin (Cell Signaling Technology), N-myc and p53 (Santa Cruz Biotechnology).
At cellular level, mitochondria- or receptor (Fas/FasL)-mediated pathways activate caspase signaling cascade which in turn induces DNA damage and initiates programmed cell death (apoptosis). To determine whether SsnB-induced cell death is mediated by caspase activation, Western blotting as well as immunofluorescence assay were performed to detect the active form of caspase-3 in neuroblastoma cells treated with SsnB for 2 days (SH-SY5Y and IMR-32 cells), 3 days (NGP cells) or 4 days (SKNF-1 and SK-N-BE(2) cells). The number of cleaved caspase-3 positive cells were quantitated by ImageJ programme and plotted. […]

[3] = test system: human neuroblastoma cell lines (SH-SY5Y, SKNF-1, NGP, IMR-32 and SK-N-BE(2) cells); assay: MTT cell viability assay; type: cell-based; details: NAC 1 mM or 5 mM pretreatment 1 h, then SsnB 10 μM; p<0.05 vs SsnB alone
From the text: Human neuroblastoma cell lines (SH-SY5Y, IMR-32, SK-N-BE(2) and SKNF-1 cells) were obtained from The American Type Culture Collection (ATCC; Manassas, Va.), and NGP cells were kind gift from Garrett M. Brodeur (The Children's Hospital of Philadelphia, Philadelphia, Pa.). All cell lines were maintained in complete Dulbecco's Modified Eagle's Medium (DMEM) supplemented with 10% fetal bovine serum (FBS; Atlanta Biologicals, Lawrenceville, Ga.) and 1× antibiotic-antimycotic solution (containing 100 U/ml penicillin, 100 μg/ml streptomycin and 0.25 μg/ml amphotericin B), and grown at 37° C. in a humidified incubator with 5% CO2. Stock solution of SsnB was prepared in dimethyl sulfoxide (DMSO). Cells treated with different concentrations of SsnB in DMEM with 10% FBS were grown for subsequent days. Cells treated with equal volume of DMSO were used as control.
The viability of SsnB-treated cells was determined by MTT assay following manufacturer's instructions (Roche diagnostics corporation, Indianapolis, Ind.). Briefly, cells (1×10^4 cells/well) grown in 96-well cell culture plate were incubated with or without SsnB in 100 μl of complete culture medium with 10% FBS. After treatments, cells were incubated with 10 μl of MTT reagent for 4 h and then incubated overnight in solubilization buffer (100 μl) at 37° C. Absorbance of the formazan product was read at 575 nm in spectramax spectrophotometer (Molecular Devices, Sunnyvale, Calif.). A reference wavelength of 690 nm was used to detect background. The measured absorption directly correlated with the number of viable cells in culture. The experiments were performed in triplicate and repeated at least three times.
MTT assay was carried out to examine the effects of SsnB on viability of all the above listed neuroblastoma cells. After 2 days (SH-SY5Y and IMR-32), 3 days (NGP cells) or 4 days (SKNF-1 and SK-N-BE(2) cells) treatment with SsnB (1, 5, 10 and 20 μM), MTT cell viability assays were performed.

[4] = test system: reactive oxygen species in neuroblastoma cells; assay: ROS generation, H2DCFDA fluorometry assay; type: cell-based, human; details: NAC 1 and 5 mM, SsnB 10 μM; p<0.05 vs SsnB alone
Procedure: The production of reactive oxygen species (ROS) in SsnB-treated neuroblastoma cells was detected by a cell-permeable fluorescence probe H2DCFDA (carboxy-2′,7′-dichlorodihydrofluorescein diacetate) according to the manufacturer's instructions (Invitrogen, Carlsbad, Calif.). Briefly, neuroblastoma cells were cultured in DMEM with 10% FBS in Lab-TekII chamber slides (Fisher Scientific, Pittsburg, Pa.) and treated with SsnB for 2 days (SH-SY5Y and IMR-32 cells), 3 days (NGP cell) or 4 days (SKNF-1 and SK-N-BE(2) cells). After treatments, cells were washed with Hank's buffered salt solution (HBSS; Thermo Scientific, Waltham, Mass.) and incubated with 25 μM of carboxy-H2DCFDA dye for 30 min at 37° C. in dark. Nuclei were counterstained with DAPI. Cells were washed three times with HBSS, mounted with Vectashield mounting medium (Vector Laboratories), and immediately examined under Nikon-E600 fluorescence microscopy equipped with fluorescein isothiocyanate (FITC) filter. Oxidation of H2DCFDA probe occurs almost exclusively in the cytosol, and generates a fluorescence that is proportional to ROS generation in that cell. As a negative control, cells without H2DCFDA dye were used to detect autofluorescence. The fluorometric analysis to detect generation of ROS was performed. Briefly, after treatments with SsnB as mentioned above, cells were labeled with carboxy-H2DCFDA dye (25 μM) for 30 min at 37° C. Cells were trypsinized, washed, and re-suspended in PBS and fluorescence intensity was monitored at excitation wavelength 485 nm and emission wavelength 530 nm with a spectramax spectrophotometer (Molecular Devices, Sunnyvale, Calif.).
SsnB-induced generation of ROS was also evaluated by fluorometry assay. Neuroblastoma cells as treated above were incubated with H2DCFDA dye for 30 min and the fluorescence intensity was measured at 485 nm (excitation wavelength) and 530 nm (emission wavelength).

## N[C@@H](CCC(=O)N[C@@H](CS)C(=O)NCC(=O)O)C(=O)O [GSH, glutathione, reference compound]
[1]
  OD value on addition of GSH: lowers the OD value in a dose dependent manner

## CC(=O)NCCSSCCN [NAC, N-acetylcystamine, reference compound]
[2]
  activation of caspase-3 in SsnB-treated cells: inhibited the activation of caspase-3
[3]
  viability of SsnB-treated cells: significantly increased the viability
[4]
  ROS levels in SsnB-treated cells: significantly reduced ROS levels
